Where two headings read alike, the source gives them in different places.
Biological target: T1, human recombinant HDAC6 (Homo sapiens, UniProt Q9UBN7)
T1 construct: purchased Calbiochem 382180
T1 sequence (Q9UBN7 1-1215): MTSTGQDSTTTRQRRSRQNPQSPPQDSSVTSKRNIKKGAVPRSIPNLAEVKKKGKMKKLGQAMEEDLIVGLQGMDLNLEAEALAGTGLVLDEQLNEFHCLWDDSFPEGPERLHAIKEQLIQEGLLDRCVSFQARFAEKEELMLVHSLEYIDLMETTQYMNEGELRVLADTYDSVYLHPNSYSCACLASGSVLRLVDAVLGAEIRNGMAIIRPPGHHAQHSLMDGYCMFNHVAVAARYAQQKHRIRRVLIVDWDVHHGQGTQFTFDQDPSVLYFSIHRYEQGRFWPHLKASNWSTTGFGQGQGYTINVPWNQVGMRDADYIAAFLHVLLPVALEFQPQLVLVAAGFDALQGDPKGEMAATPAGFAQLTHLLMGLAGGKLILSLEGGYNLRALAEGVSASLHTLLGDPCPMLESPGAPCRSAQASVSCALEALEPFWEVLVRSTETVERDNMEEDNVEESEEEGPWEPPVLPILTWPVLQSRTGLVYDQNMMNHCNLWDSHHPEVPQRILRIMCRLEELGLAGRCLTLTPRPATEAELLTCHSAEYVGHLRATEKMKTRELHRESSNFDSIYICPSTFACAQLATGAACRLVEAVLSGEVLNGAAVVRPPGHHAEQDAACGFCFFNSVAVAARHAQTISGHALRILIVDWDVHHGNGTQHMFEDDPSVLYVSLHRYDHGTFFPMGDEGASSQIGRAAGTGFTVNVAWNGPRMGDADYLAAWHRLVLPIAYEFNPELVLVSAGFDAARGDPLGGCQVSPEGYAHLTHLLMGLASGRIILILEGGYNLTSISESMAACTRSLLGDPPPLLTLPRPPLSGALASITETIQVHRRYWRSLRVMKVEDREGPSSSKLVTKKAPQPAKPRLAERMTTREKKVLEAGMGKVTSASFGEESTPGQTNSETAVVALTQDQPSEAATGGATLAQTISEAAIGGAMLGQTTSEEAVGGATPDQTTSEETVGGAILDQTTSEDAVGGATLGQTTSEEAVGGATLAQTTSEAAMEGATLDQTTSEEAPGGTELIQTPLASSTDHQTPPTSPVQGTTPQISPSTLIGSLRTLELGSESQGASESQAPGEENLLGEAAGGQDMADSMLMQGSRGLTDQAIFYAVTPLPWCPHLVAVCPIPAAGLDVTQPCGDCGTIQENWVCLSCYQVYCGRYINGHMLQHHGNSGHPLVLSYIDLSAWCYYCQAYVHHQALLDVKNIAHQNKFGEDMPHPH
Assay: HDAC6 enzyme activity inhibition assay (HDAC Fluorimetric Drug Discovery Kit)
Assay type: biochemical
Settings: for HDAC6 selectivity (fold): HDAC6 over HDAC1; for IC50: human recombinant HDAC6, same protocol as HDAC1
Outline: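 Human recombinant HDAC1 or HDAC6 (0.3 μg) reacted with 10 μM Fluor de Lys-SIRT1 substrate and 5-fold compound dilutions for 60 min at 30 °C. Developer II added for 30 min, fluorescence read at Ex 360/Em 460; IC50 calculated from the readings.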

Compound | HDAC6 selectivity (fold) | IC50 (read-out: HDAC6) [nM] | IC50 (HDAC6 (nM)) [nM]
CCN(CC)c1ccc(N(Cc2ccc(-c3nnc(C(F)(F)F)o3)cc2F)C(=O)N2CCS(=O)(=O)CC2)cc1 [Compound 21552, N-(4-(diethylamino)phenyl)-N-(2-fluoro-4-(5-(trifluoromethyl)-1,3,4-oxadiazol-2-yl)benzyl)thiomorpholine-4-carboxamide 1,1-dioxide] | 7 | 1520 | 
CCN(CC)c1ccc(N(Cc2ccc(-c3nnc(C(F)F)o3)cc2F)C(=O)N2CCS(=O)(=O)CC2)cc1 [Compound 21553] | 14 | 697 | 
CN1CCN(C(=O)N(CCc2ccccc2)Cc2ccc(-c3nnc(C(F)F)o3)cc2F)CC1 [Compound 21554, N-(4-(5-(difluoromethyl)-1,3,4-oxadiazol-2-yl)-2-fluorobenzyl)-4-methyl-N-phenethylpiperazine-1-carboxamide] | 65 | 155 | 
O=C(N1CCOCC1)N(CCc1ccccc1)Cc1ccc(-c2nnc(C(F)F)o2)cc1F [Compound 21555, N-(4-(5-(difluoromethyl)-1,3,4-oxadiazol-2-yl)-2-fluorobenzyl)-N-phenethylmorpholine-4-carboxamide] | 26 | 386 | 
COc1ccccc1CCN(Cc1ccc(-c2nnc(C(F)F)o2)cc1F)C(=O)N1CCN(C)CC1 [Compound 21556, N-(4-(5-(difluoromethyl)-1,3,4-oxadiazol-2-yl)-2-fluorobenzyl)-N-(2-methoxyphenethyl)-4-methylpiperazine-1-carboxamide] | 36 | 281 | 
COc1ccccc1CCN(Cc1ccc(-c2nnc(C(F)F)o2)cc1F)C(=O)N1CCOCC1 [Compound 21557, N-(4-(5-(difluoromethyl)-1,3,4-oxadiazol-2-yl)-2-fluorobenzyl)-N-(2-methoxyphenethyl) morpholine-4-carboxamide] | 41 | 244 | 
CN1CCN(C(=O)N(Cc2ccc(-c3nnc(C(F)(F)F)o3)cc2F)c2ccc(F)c(Cl)c2)CC1 [Compound 21564, N-(3-chloro-4-fluorophenyl)-N-(2-fluoro-4-(5-(trifluoromethyl)-1,3,4-oxadiazol-2-yl)benzyl)-4-methylpiperazine-1-carboxamide] | 88 | 113 | 
CC(C)(C)OC(=O)N(Cc1ccc(-c2nnc(C(F)F)o2)cc1)c1ccccc1 [Compound 21568, Tert-butyl (4-(5-(difluoromethyl)-1,3,4-oxadiazol-2-yl)benzyl)(phenyl)carbamate] | 42 | 237 | 
O=C(Oc1ccccc1)N(Cc1ccc(-c2nnc(C(F)F)o2)cc1)c1ccccc1 [Compound 21569, Phenyl (4-(5-(difluoromethyl)-1,3,4-oxadiazol-2-yl)benzyl)(phenyl)carbamate] | 59 |  | 170
CC(C)COC(=O)N(Cc1ccc(-c2nnc(C(F)F)o2)cc1)c1ccccc1 [Compound 21570, Isobutyl (4-(5-(difluoromethyl)-1,3,4-oxadiazol-2-yl)benzyl)(phenyl)carbamate] | 32 | 309 | 
CCCCN(Cc1ccc(-c2nnc(C(F)F)o2)cc1)C(=O)Nc1ccccc1 [Compound 21576, 1-Butyl-1-(4-(5-(difluoromethyl)-1,3,4-oxadiazol-2-yl)benzyl)-3-phenylurea] | 24 | 409 | 
CN(C)CCNC(=O)N(Cc1ccc(-c2nnc(C(F)F)o2)cc1)c1ccccc1 [Compound 21577, 1-(4-(5-(Difluoromethyl)-1,3,4-oxadiazol-2-yl)benzyl)-3-(2-(dimethylamino)ethyl)-1-phenylurea] | 152 | 66 | 
CCN(CCN(C)C)C(=O)N(Cc1ccc(-c2nnc(C(F)F)o2)cc1)c1ccccc1 [Compound 21578, 1-(4-(5-(Difluoromethyl)-1,3,4-oxadiazol-2-yl)benzyl)-3-(2-(dimethylamino)ethyl)-3-ethyl-1-phenylurea] | 233 | 43 | 
CN(CCO)C(=O)N(Cc1ccc(-c2nnc(C(F)F)o2)cc1)c1ccccc1 [Compound 21585, 1-(4-(5-(Difluoromethyl)-1,3,4-oxadiazol-2-yl)benzyl)-3-(2-hydroxyethyl)-3-methyl-1-phenylurea] | 370 | 27 | 
O=C(N1CCOCC1)N(Cc1ccc(-c2nnc(C(F)(F)F)o2)cc1)c1ccc(F)c(Cl)c1 [Compound 21594, N-(3-chloro-4-fluorophenyl)-N-(4-(5-(trifluoromethyl)-1,3,4-oxadiazol-2-yl)benzyl)morpholine-4-carboxamide] | 115 | 87 | 

Continued by falling IC50 (read-out: HDAC6), values first:

HDAC6 selectivity (fold) | IC50 (read-out: HDAC6) [nM] | Compound | IC50 (HDAC6 (nM)) [nM]
370 | 27 | CN(C)[C@@H]1CCN(C(=O)N(Cc2ccc(-c3nnc(C(F)F)o3)cc2F)c2ccc(F)c(Cl)c2)C1 [Compound 21584, (R)—N-(3-chloro-4-fluorophenyl)-N-(4-(5-(difluoromethyl)-1,3,4-oxadiazol-2-yl)-2-fluorobenzyl)-3-(dimethylamino)pyrrolidine-1-carboxamide] | 
476 | 21 | Cn1ncc2ccc(N(Cc3ccc(-c4nnc(C(F)F)o4)cc3F)C(=O)N3CCS(=O)(=O)CC3)cc21 [Compound 21546, N-(4-(5-(difluoromethyl)-1,3,4-oxadiazol-2-yl)-2-fluorobenzyl)-N-(1-methyl-1H-indazol-6-yl)thiomorpholine-4-carboxamide 1,1-dioxide] | 
476 | 21 | O=C(N1CC2(COC2)C1)N(Cc1ccc(-c2nnc(C(F)F)o2)cc1F)c1ccc(F)c(Cl)c1 [Compound 21586, N-(3-chloro-4-fluorophenyl)-N-(4-(5-(difluoromethyl)-1,3,4-oxadiazol-2-yl)-2-fluorobenzyl)-2-oxa-6-azaspiro[3.3]heptane-6-carboxamide] | 
494 | 20 | O=C(N1CCOCC1)N(Cc1ccc(-c2nnc(C(F)F)o2)cc1)c1ccc(F)c(Cl)c1 [Compound 21593, N-(3-chloro-4-fluorophenyl)-N-(4-(5-(difluoromethyl)-1,3,4-oxadiazol-2-yl)benzyl)morpholine-4-carboxamide] | 
526 | 19 | O=C(N1CC2(COC2)C1)N(Cc1ccc(-c2nnc(C(F)F)o2)cn1)c1ccccc1 [Compound 21566, N-((5-(5-(difluoromethyl)-1,3,4-oxadiazol-2-yl)pyridin-2-yl)methyl)-N-phenyl-2-oxa-6-azaspiro[3.3]heptane-6-carboxamide] | 
625 | 16 | CN1CCN(C(=O)N(Cc2ccc(-c3nnc(C(F)F)o3)cc2F)c2ccc(F)c(Cl)c2)CC1 [Compound 21565, N-(3-chloro-4-fluorophenyl)-N-(4-(5-(difluoromethyl)-1,3,4-oxadiazol-2-yl)-2-fluorobenzyl)-4-methylpiperazine-1-carboxamide] | 
668 | 15 | CCN1CCN(C(=O)N(Cc2ccc(-c3nnc(C(F)F)o3)cc2F)c2ccc(F)c(Cl)c2)CC1 [Compound 21591, N-(3-chloro-4-fluorophenyl)-N-(4-(5-(difluoromethyl)-1,3,4-oxadiazol-2-yl)-2-fluorobenzyl)-4-ethylpiperazine-1-carboxamide] | 
833 | 12 | CN(C)[C@H]1CCN(C(=O)N(Cc2ccc(-c3nnc(C(F)F)o3)cc2F)c2ccc(F)c(Cl)c2)C1 [Compound 21583, (S)—N-(3-chloro-4-fluorophenyl)-N-(4-(5-(difluoromethyl)-1,3,4-oxadiazol-2-yl)-2-fluorobenzyl)-3-(dimethylamino)pyrrolidine-1-carboxamide] | 
909 | 11 | O=C(N1CCS(=O)(=O)CC1)N(Cc1ccc(-c2nnc(C(F)F)o2)cn1)c1ccc(F)c(Cl)c1 [Compound 21587, N-(3-chloro-4-fluorophenyl)-N-((5-(5-(difluoromethyl)-1,3,4-oxadiazol-2-yl)pyridin-2-yl)methyl)thiomorpholine-4-carboxamide 1,1-dioxide] | 
